Measured values taken from article PMC5335257, “Promoting in vivo remyelination with small molecules: a neuroreparative pharmacological treatment for Multiple Sclerosis” (Scientific Reports, 2017).

Tests used:
[1] = Pharmacokinetics in plasma and brain after single i.p. or oral dose; format: in vivo, male BALB/c mice; conditions: for AUCinf / AUClast / Cmax / MRT inf / MRT last / Tmax / AUC(0-inf) / AUC(0-t): male BALB/c mice; for Cmax / MRT inf / MRT last / Tmax / AUC(0-inf) / AUC(0-t): mouse
[2] = tested on: GSK-3; set-up: method as in PMID 24437940; conditions: read-out: GSK-3 inhibition IC50; cited from earlier work
[3] = tested on: OPCs from P0 mice; test: Survival assay (Casp3+-A2B5+ cells); format: cell-based, mouse; conditions: murine P0 OPCs, 1 μM, 2 DIV
Method: We isolated OPCs, as previously described. Briefly, a stock papain solution was prepared containing ([…]; Worthington Biochemical), L-cysteine (0.2 mg/ml; Sigma), and EDTA (0.2 mg/ml; Sigma) in Hank’s Balanced Salt Solution (HBSS; Invitrogen) without Ca^2+ and Mg[2]. Then, the cerebral cortices of P0 CD1 mice were dissected out and placed for 5 minutes at 37 °C in a medium containing the stock papain solution in HBSS with Ca^2+ and Mg^2+ (1:10; Invitrogen) in order to easily remove the meninges. Once meninges and choroid plexus were removed, the tissue was enzymatically dissociated for 5 minutes at 37 °C again by using the papain solution (1:10 in HBSS without Ca^2+ and Mg^2+) and the digested tissue was then filtered through a 100 μm nylon mesh strainer (BD Biosciences) and seeded on poly-L-ornithine-coated (Sigma) 75 cm^2 flasks in DMEM medium (Invitrogen) containing 10% foetal bovine serum (FBS; BioWhittaker) and 100 U/mL penicillin, 0.1 mg/mL streptomycin and 0.25 μg/ml Amphotericin B antibiotic antimycotic solution (Sigma). Cultures were maintained at 37 °C and 5% CO2, and the medium was changed every 3 days. […] The resulting enriched oligodendrocyte progenitor cell suspension was counted and seeded. […]

[4] = tested on: spinal cord injury models; set-up: method as in PMID 21297958, PMID 23077723; conditions: spinal cord injury models (as well as EAE); cited from earlier work
[5] = tested on: cerebellar slices demyelinated with LPC; test: Ex vivo remyelination in cerebellar slice cultures demyelinated with LPC; format: cell-based, CD1 P7 mice; conditions: 5 μM, 3 days post lesion (3DPL)
Method: The protocol used was modified from previously described. CD1 P7 mice were decapitated, and their cerebella were dissected into ice-cold HBSS (Invitrogen). 300 μm sagittal slices of cerebellum were cut using a McIllwain tissue chopper, placed on Millicell-CM organotypic culture inserts (3 slices per insert; Millipore) in a medium containing HBSS:BME: horse serum (1:2:1, Invitrogen), 28 mM D (+) - glucose (Normapur), […] L-Glutamine (Invitrogen) and 100 U/mL penicillin, 0.1 mg/mL streptomycin and 0.25 μg/ml Amphotericin B antibiotic anti-mycotic solution (Sigma) and maintained at 5% CO2 and 37 °C. Medium was changed every two days, and after 7 days in culture, demyelination was induced by addition of 0.5 mg/ml LPC (Sigma) to the medium for 15 h. After that, slices were treated with fresh medium containing PDE7-GSK3 or GSK3 inhibitors (VP1.15, VP3.15 or TDZD8; 5 μM). Cultures were maintained for 1 or 3 days post lesion (DPL), and then fixed for 40 minutes and immunostained with anti-MBP antibodies (myelin basic protein –as a marker of myelin; 1:200; Serotec; Cat#MCA4095) and anti-neurofilament antibody (as a marker of axons; 1:200; Abcam; Cat#ab8135). Fluorescence images were taken on a confocal SP5 resonant scanner (Leica Microsystems) at 1μm intervals in white matter areas at x40 magnification. The photographs were merged and co-localisation of both markers was quantified with Image J software using the colocalization highlighter plugin. This measurement was related to the area occupied by axons (neurofilament staining) and normalized with control values showing the data as the mean normalized myelination index ± SEM. Quantification was made in at least three independent experiments.

[6] = i.p. 10 mg.kg^−1 single dose, brain
[7] = ip, i.p. 10 mg.kg^−1 single dose, brain
[8] = ip, i.p. 10 mg.kg^−1 single dose, plasma
[9] = po, p.o. 50 mg.kg^−1 single dose, brain
[10] = po, p.o. 50 mg.kg^−1 single dose, plasma
[11] = p.o. 50 mg.kg^−1 single dose, brain

In the case of c1ccc(-c2n/c(=N/CCN3CCOCC3)sn2-c2ccccc2)cc1 [VP3.15], the AUCinf [1, 6] is reported as 1506.00 ng·h/g, the AUClast [1, 6] is reported as 1489.25 ng·h/g and the “oral bioavailability and brain penetration” value ([1]; mice, after oral and i.p. administration) is reported as “shows oral bioavailability and brain penetration”. For the same compound, the Cmax [1, 7] was 1980 ng/g, the MRT inf [1, 7] was 1.25 h and the MRT last [1, 7] was 1.21 h. For the same compound, the Tmax [1, 7] was 0.08 h, the AUC(0-inf) [1, 8] was 2000 ng·h/mL and the AUC(0-t) [1, 8] was 1960 ng·h/mL. For the same compound, the Cmax [1, 8] was 1990 ng/mL, the MRT inf [1, 8] was 0.91 h and the MRT last [1, 8] was 0.82 h. The Tmax [1, 8] was 0.25 h, the Cmax [1, 9] was 497 ng/g and the MRT inf [1, 9] was 4.01 h. The MRT last [1, 9] was 2.07 h, the Tmax [1, 9] was 0.5 h and the AUC(0-inf) [1, 10] was 2380 ng·h/mL. It also gave an AUC(0-t) [1, 10] of 2290 ng·h/mL, a Cmax [1, 10] of 881 ng/mL and an MRT inf [1, 10] of 1.86 h. It also gave an MRT last [1, 10] of 1.64 h, a Tmax [1, 10] of 1 h and an AUCinf [1, 11] of 1794.28 ng·h/g. For the same compound, the AUClast [1, 11] was 1375.08 ng·h/g, the IC50 [2] was 880 nM and the “OPC survival (Casp3+-A2B5+ apoptotic cells)” value [3] was “without affecting”. For the same compound, the immunomodulatory effect [4] was “immunomodulatory effect” and the “remyelination (normalized myelination index)” value [5] was “increased”.
